Entries after “also recorded” stand apart in the source; their conditions may differ.

The conditions of data set [1]: cited from earlier work.
In the next data set the test system is P. falciparum. In words: Parasite multiplication and survival of mice infected with P. falciparum. The data set is classed as in vivo. Conditions: FIG. 5.
The test system of data set [2] is Plasmodium falciparum. As to the kind of experiment: Quantitative in vitro growth inhibition of Plasmodium falciparum. Conditions: 2.5 μg/ml (about 10^-5 M). The data set is classed as cell-based.
The test system of another data set is normal red blood cells. As to the kind of experiment: Concentration in healthy red blood cells. The data set is classed as cell-based, human. Particulars: tritium-marked, 7 μg/ml, 37° C. Here is the method:
(§1) This test studies the incorporation of […] in normal red blood cells and in red blood cells infected with Plasmodium falciparum.
(§2) Tritium-marked aerobactin (0.2 mCi/mmol to 0.3 mCi/mmol) was purified as described above (FIG. 3) from a supernatant of strains of K5 1101 Klebsiella pneumoniae culture cultivated in an RPMI* medium containing 100 μCi/ml of tritium-marked lysine.
(§3) The tritium-containing aerobactin (7 μg/ml) and the ^125 I containing desferioxamine (50 μg/ml) were introduced into synchronized cultures of Plasmodium falciparum (schizont stage, 20% parasitemia, hematocrit: 5%) and in a suspension of red blood cells (5% hematocrit). The cultures were incubated at 37° C. and 50 μl samples were taken at different times.
(§4) For each sample, the following were measured:
(§5) 1. The cpm in the culture supernatant;
2. The cpm in the supernatant of red blood cells lysis (the red blood cells were lysed in 40 vol. of RPMI diluted ten times and the free parasites were precipitated using a centrifuge rotating at 5,000 rpm for 5 min and were washed in RPMI); and […]

The test system of a further data set is Plasmodium chaubaudi. As to the kind of experiment: Parasite multiplication and survival of mice infected with Plasmodium chaubaudi. Format: in vivo.
The test system of data set [3] is Plasmodium falciparum. In words: Inhibition of Plasmodium falciparum growth (35S-methionine incorporation) and effect of adding iron. Format: cell-based. Conditions: for effect of FeCl3 on inhibition: 2.10^-3 M FeCl3 added immediately after the hydroxamate; for effect of adding iron on the antiplasmodial action: iron added to the parasite culture; for antiplasmodial activity / parasite growth inhibition: in vitro, no iron added. The protocol: FIG. 3b: the pool of hydroxamate (10 ml to 15 ml) collected by the ion exchange chromatography was placed in a Sephadex G50 column (25×2 cm) and eluted with 100 mM of phosphate buffer (pH 7.0), at a flow rate of 30 ml/h. Fractions (2 ml to 3 ml) were collected and the hydroxamate measured (A526 nm absorbance -- --), and the following were also measured: inhibition of Plasmodium falciparum growth (--.smallcircle.--) and A220 nm absorbance (--Δ--).
0.2 μm of the filtered fractions were placed in a synchronized culture of Plasmodium falciparum at a final concentration of 2.5%, as described in Table I. 100 μCi/ml of methionine marked with sulfur 35 (Amersham) were added on day 1 (rings). The parasite culture was collected on day 2 (schizonts) and the incorporation of ^35 S-methionine was measured in 10% TCA.

In a further data set the test system is bacteria. Conditions: Williams et al 1986; cited from earlier work.
The next data set relates to monkeys. Conditions: monkey, in vivo.
Another data set concerns L fibroblasts. In words: 35S-methionine incorporation in L fibroblasts. The data set is classed as cell-based. Conditions: 5 hours.
For data set [4] the following is noted: Williams et al 1986; cited from earlier work.
The test system of data set [5] is red blood cells infected with Plasmodium falciparum. As to the kind of experiment: Penetration and concentration in parasitized red blood cells. Format: cell-based, human. Particulars: for penetration into parasitized red blood cells: schizont stage, aerobactin 7 μg/ml, desferioxamine 50 μg/ml.
Source text: as §1, §2
Desferioxamine marked with iodine 125 (50 mCi/mmol) was obtained by the iodine-producing technique.
as §3, §4, §5
2. The cpm in the supernatant of red blood cells lysis (the red blood cells were lysed in 40 vol. of RPMI diluted ten times and the free parasites were precipitated using a centrifuge rotating at 5,000 rpm for 5 min and were washed in RPMI); and
3. The cpm associated with free parasites.
The parasites are subsequently lysed in order to prepare soluble and membrane fractions as described previously (Braun-Breton et al, Molecular Biochem. Parasitol., 1986, 20, pp. 33-43).

Data set [6] has as its system schizonts of Plasmodium falciparum. As to the kind of experiment: Kinetics of inhibition of 35S-methionine incorporation in schizonts. The data set is classed as cell-based. Particulars: for incorporation of 35S-methionine in the proteins of schizonts: FIG. 7, aerobactin 50 μg/ml, desferioxamine 500 μg/ml. Here is the method:
Time in minutes is plotted along the X axis and the percentage of inhibited schizonts is plotted up the Y axis.
The schizonts of Plasmodium falciparum were concentrated from a culture, they were washed and cultured at 37° C. for one hour. Solutions of hydroxamate (-- -- 50 μg/ml aerobactin and --.smallcircle.-- 500 μg/ml of desferioxamine) were added to the schizonts. Incubation at 37° C. continued and samples were taken at various different times. The hydroxamate was removed by washing the cells, and the cells were again cultured in the presence of 250 μCi/ml ^35 S-methionine for one hour.
The cultures were collected and the degree to which ^35 S-methionine had been incorporated was measured.

A further data set has as its system mice. In words: Toxicity in mice. Format: in vivo. Conditions: injection.
For the next data set, the system named is fibroblasts. In words: Toxicity on a culture of fibroblasts. The data set is classed as cell-based. Conditions: purified.

For the compound `CCN(CC)CCCC(C)Nc1ccnc2cc(Cl)ccc12` (stereo not drawn) [chloroquine], in [1], the “toxicity (prior art)” value is given as “do not present significant toxicity”.

Consider `CC(=O)N(O)CCCCC(NC(=O)CC(O)(CC(=O)NC(CCCCN(O)C(C)=O)C(=O)O)C(=O)O)C(=O)O` (stereo not drawn) [aerobactin], for which the “parasite multiplication and survival of mice (P. falciparum)” value in the data set with P. falciparum is given as “The same effect has been observed”. Also, the “inhibition of growth of Plasmodium falciparum” value in the data set on Plasmodium falciparum [2] is on record as 100%. Moreover, the “concentration in healthy red blood cells” value in the data set with normal red blood cells is given as “not concentrated in healthy red blood cells”. In the data set with Plasmodium chaubaudi (7.5 μg), the survival of mice entry is “do not survive”. Also, the “parasite multiplication and survival of mice” value in the data set with Plasmodium chaubaudi (purified, intravenous, 15 μg/mouse) is reported as “causes parasite multiplication to be slowed down, allowing the mice to survive”. In addition, in the data set on Plasmodium falciparum [3], the “effect of FeCl3 on inhibition” value is recorded as “little effect on inhibition” and the “effect of adding iron on the antiplasmodial action” value is given as “does not reverse the plasmocidin action”. In addition, the “plasmocidin activity after purification” value in the data set with Plasmodium falciparum [3] (Dowex-1 and Sephadex G50 purified, FIG. 3) is recorded as “plasmocidin activity subsists”. In the data set on bacteria, the “concentration stimulating bacterial growth relative to enterochelin” value is 500 times smaller. Also, the “toxic effect in monkeys” value in the data set with monkeys is “no toxic effect has been observed”. Moreover, in the data set with L fibroblasts, the “inhibition of methionine incorporation in L fibroblasts” value is given as “Such activity was not found”. In addition, the “affinity for ferric derivatives relative to enterochelin” value in data set [4] is recorded as “lower affinity for ferric derivatives than enterochelin”. Also, in data set [5] (lysed parasites, soluble and membrane fractions), the “location of intraparasitic radioactivity” value is recorded as “recovered in the soluble fraction of the parasites”. Further, in data set [5] (37° C.), the “penetration into parasitized red blood cells” value is on record as “penetrates quickly into parasitized red blood cells”. The “detection in the cytoplasm of the red blood cells” value in [5] (supernatant of red blood cell lysis) was “not detected”. The “concentration in the parasitized cell” value in data set [5] (tritium-marked, 7 μg/ml, 37° C.) is “at least 200 times”. In addition, in data set [6], the “incorporation of 35S-methionine in the proteins of schizonts” value is given as “quickly suppresses the incorporation”. Further, the inhibition at 50 µg/mL in data set [6] (Plasmodium falciparum, 2 h, 50 μg/ml, within two hours, 37° C., read-out: schizonts with inhibited incorporation of methionine) was 90%. Moreover, the toxicity for mice result with mice is on record as “not toxic for mice; also recorded: no toxic effect has been observed”. Besides, the “toxic effect on fibroblasts in culture” value with fibroblasts is recorded as “no toxic effect on the cells”.

As to `Cl.NCCCC[C@H](N)C(=O)NO` [L-Lysine hydroxamate hydrochloride], the “antiplasmodial activity / parasite growth inhibition” value in the data set on Plasmodium falciparum [3] is “does not exhibit antiplasmodial activity”.

On to `CC(=O)N(O)CCCCCNC(=O)CCC(=O)N(O)CCCCCNC(=O)CCC(=O)N(O)CCCCCN` [Desferioxamine], for which, in the data set with Plasmodium falciparum [3], the “effect of FeCl3 on inhibition” value was “completely reverses the inhibition”, the “antiplasmodial activity / parasite growth inhibition” value is on record as “inhibits parasite growth” and the “effect of adding iron on the antiplasmodial action” value is reported as “totally reversed”. Besides, in data set [5] (37° C.), the “penetration into parasitized red blood cells” value is listed as “does not penetrate into parasitized red blood cells”. In addition, in data set [6], the “incorporation of 35S-methionine in the proteins of schizonts” value was “no action on the incorporation of methionine”.

Values taken from patent publication US5192807A, “Siderophores as antiparasitic agents” (priority 1987, dated 1993).
